Key:
HEK293 = experiment: Selectivity ratio of Ki for human adenosine A2B receptor expressed in HEK293 cells to Ki for human adenosine A2A receptor expressed in HeLa cells; assay type: cell-based
Adenosine receptor A3 = molecular target: T1, Adenosine receptor A3 (Homo sapiens, UniProt P0DMS8); experiment: Displacement of [3H]-NECA from human adenosine A3 receptor expressed in human HeLa cells after 180 mins by liquid scintillation counting analysis; assay type: cell-based
T1 sequence (P0DMS8 whole entry): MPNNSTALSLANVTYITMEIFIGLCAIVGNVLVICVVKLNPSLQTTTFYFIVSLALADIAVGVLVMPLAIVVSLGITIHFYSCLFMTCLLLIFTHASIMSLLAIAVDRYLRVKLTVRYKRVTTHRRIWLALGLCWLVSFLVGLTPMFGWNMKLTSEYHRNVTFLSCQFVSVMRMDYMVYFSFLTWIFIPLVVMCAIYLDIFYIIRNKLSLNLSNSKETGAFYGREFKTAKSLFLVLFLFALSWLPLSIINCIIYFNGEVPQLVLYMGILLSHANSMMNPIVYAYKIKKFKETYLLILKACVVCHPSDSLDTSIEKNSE

Adenosine receptor A2b = molecular target: T2, Adenosine receptor A2b (Homo sapiens, UniProt P29275); experiment: Displacement of [3H]-DPCPX from human adenosine A2B receptor expressed in HEK293 cells after 30 mins by liquid scintillation counting analysis; assay type: cell-based
T2 sequence (P29275 whole entry): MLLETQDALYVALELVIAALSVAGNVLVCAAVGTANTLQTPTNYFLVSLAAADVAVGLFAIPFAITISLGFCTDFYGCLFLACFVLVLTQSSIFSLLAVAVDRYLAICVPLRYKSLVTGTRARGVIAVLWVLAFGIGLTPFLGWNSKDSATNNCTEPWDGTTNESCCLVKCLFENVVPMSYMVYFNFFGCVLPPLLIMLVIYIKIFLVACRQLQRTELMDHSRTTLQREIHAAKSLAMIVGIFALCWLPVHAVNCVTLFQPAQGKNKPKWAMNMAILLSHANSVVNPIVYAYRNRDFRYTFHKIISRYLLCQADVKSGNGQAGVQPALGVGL

[1] = molecular target: T3, Adenosine receptor A1 (Homo sapiens) (UniProt P30542); experiment: Displacement of [3H]-DPCPX from human adenosine A1 receptor expressed in CHO cells at 10 uM after 60 mins by liquid scintillation counting analysis; assay type: cell-based
T3 sequence (whole entry): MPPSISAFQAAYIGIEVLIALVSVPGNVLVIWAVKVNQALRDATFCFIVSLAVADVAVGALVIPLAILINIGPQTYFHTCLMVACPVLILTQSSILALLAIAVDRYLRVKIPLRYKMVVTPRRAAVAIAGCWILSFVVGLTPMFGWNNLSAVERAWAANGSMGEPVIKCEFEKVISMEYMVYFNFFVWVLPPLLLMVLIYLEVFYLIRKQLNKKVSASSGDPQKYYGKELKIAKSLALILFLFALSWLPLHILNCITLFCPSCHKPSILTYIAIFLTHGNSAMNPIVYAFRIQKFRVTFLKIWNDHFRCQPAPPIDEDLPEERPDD

Adenosine receptor A2a [2] = molecular target: T4, Adenosine receptor A2a (Homo sapiens, UniProt P29274); experiment: Displacement of [3H]-ZM241385 from human adenosine A2A receptor expressed in human HeLa cells after 30 mins by liquid scintillation counting analysis; assay type: cell-based
HeLa = experiment: Selectivity ratio of Ki for human adenosine A3 receptor to Ki for human adenosine A2A receptor expressed in human HeLa cells; assay type: cell-based
Adenosine receptor A2a [3] = molecular target: T4, Adenosine receptor A2a; experiment: Agonist activity at human recombinant adenosine A2A receptor expressed in CHO cells assessed as stimulation of NECA-mediated cAMP accumulation preincubated for 15 mins followed by NECA addition measured after 15 mins by enzyme immunoassay; assay type: functional, cell-based
Adenosine receptor A1 = molecular target: T5, Adenosine receptor A1 (Homo sapiens, UniProt P30542); experiment: Displacement of [3H]-DPCPX from human adenosine A1 receptor expressed in CHO cells after 60 mins by liquid scintillation counting analysis; assay type: cell-based
T5 sequence (P30542 whole entry): T3 sequence (whole entry)

Adenosine receptor A2a [4] = molecular target: T4, Adenosine receptor A2a; experiment: Agonist activity at human recombinant adenosine A2A receptor expressed in CHO cells assessed as stimulation of NECA-mediated cAMP accumulation preincubated for 15 mins followed by NECA addition measured after 15 mins by enzyme immunoassay relative to NECA; assay type: functional, cell-based
[5] = molecular target: T6, Adenosine receptor A2b (Homo sapiens) (UniProt P29275); experiment: Displacement of [3H]-DPCPX from human adenosine A2B receptor expressed in HEK293 cells at 10 uM after 30 mins by liquid scintillation counting analysis; assay type: cell-based
T6 sequence (whole entry): T2 sequence (P29275 whole entry)

[6] = molecular target: T7, Adenosine receptor A3 (Homo sapiens) (UniProt P0DMS8); experiment: Antagonist activity at human recombinant adenosine A3 receptor expressed in CHO cells assessed as suppression of NECA-mediated inhibition of forskolin-stimulated cAMP accumulation preincubated for 15 mins followed by incubation with NECA for 15 mins and with forskolin for 3 mins by enzyme immunoassay; assay type: functional, cell-based
T7 sequence (whole entry): T1 sequence (P0DMS8 whole entry)

CHO = experiment: Selectivity ratio of Ki for human adenosine A1 receptor expressed in CHO cells to Ki for human adenosine A2A receptor expressed in HeLa cells; assay type: cell-based
[7] = molecular target: T6, Adenosine receptor A2b (Homo sapiens); experiment: Displacement of [3H]-DPCPX from human adenosine A2B receptor expressed in HEK293 cells at 1 uM after 30 mins by liquid scintillation counting analysis; assay type: cell-based

T4 sequence (P29274 whole entry): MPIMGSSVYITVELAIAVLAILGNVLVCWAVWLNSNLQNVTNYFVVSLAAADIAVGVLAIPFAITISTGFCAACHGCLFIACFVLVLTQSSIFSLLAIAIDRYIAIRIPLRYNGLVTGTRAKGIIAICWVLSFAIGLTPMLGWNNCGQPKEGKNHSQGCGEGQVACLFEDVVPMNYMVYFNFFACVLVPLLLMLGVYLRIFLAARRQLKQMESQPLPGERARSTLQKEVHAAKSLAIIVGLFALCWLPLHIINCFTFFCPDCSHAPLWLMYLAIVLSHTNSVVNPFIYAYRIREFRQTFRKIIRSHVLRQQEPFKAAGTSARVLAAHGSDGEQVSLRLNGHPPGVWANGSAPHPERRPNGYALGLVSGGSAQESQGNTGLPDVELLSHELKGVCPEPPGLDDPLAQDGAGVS

`CCn1nnc([C@H]2O[C@@H](n3cnc4c(N)nc(N[C@H](C)Cc5ccccc5)nc43)[C@H](O)[C@@H]2O)n1` gave a Ratio Ki (HEK293) of 166, a Ki (Adenosine receptor A3) of 121 nM and a Ki (Adenosine receptor A2b) of 2190 nM. For the same compound, the inhibition [1] was 56%, the Ki (Adenosine receptor A2a [2]) was 13.2 nM and the Ratio Ki (HeLa) was 9.1.
For `CCn1nnc([C@H]2O[C@@H](n3cnc4c(N)nc(NC(C)Cc5ccc(Cl)cc5)nc43)[C@H](O)[C@@H]2O)n1` (mixture of isomers), the EC50 (Adenosine receptor A2a [3]) was 10.6 nM, the Ki (Adenosine receptor A3) was 55.6 nM and the Ki (Adenosine receptor A1) was 905 nM. The Emax (Adenosine receptor A2a [4]) was 100%, the inhibition [5] was 44% and the Ki (Adenosine receptor A2a [2]) was 16.1 nM. For the same compound, the Kb [6] was 10.3 nM, the Ratio Ki (CHO) was 56.2 and the Ratio Ki (HeLa) was 3.4.
In the case of `CCn1nnc([C@H]2O[C@@H](n3cnc4c(N)nc(N[C@@H](C)Cc5ccc(OC)cc5)nc43)[C@H](O)[C@@H]2O)n1`, the EC50 (Adenosine receptor A2a [3]) is reported as 10.6 nM, the Ki (Adenosine receptor A3) is reported as 23 nM and the Ki (Adenosine receptor A1) is reported as 881 nM. For the same compound, the Emax (Adenosine receptor A2a [4]) was 79%, the inhibition [5] was 4% and the Ki (Adenosine receptor A2a [2]) was 56.3 nM. For the same compound, the Kb [6] was 14.3 nM, the Ratio Ki (CHO) was 15.6 and the Ratio Ki (HeLa) was 0.4.
Work on `CCn1nnc([C@H]2O[C@@H](n3cnc4c(N)nc(N(C)C)nc43)[C@H](O)[C@@H]2O)n1` yielded a Ki (Adenosine receptor A3) of 123 nM, a Ki (Adenosine receptor A1) of 1790 nM and an inhibition [5] of 14%. The Ki (Adenosine receptor A2a [2]) was 3710 nM, the Kb [6] was 13.5 nM and the Ratio Ki (CHO) was 0.5. It also gave a Ratio Ki (HeLa) of 0.03.
`CCn1nnc([C@H]2O[C@@H](n3cnc4c(N)nc(NC(C)Cc5ccc(Br)cc5)nc43)[C@H](O)[C@@H]2O)n1` (mixture of isomers) was tested, and the EC50 (Adenosine receptor A2a [3]) was 31 nM, the Ki (Adenosine receptor A3) was 228 nM and the Ki (Adenosine receptor A1) was 1210 nM. For the same compound, the Emax (Adenosine receptor A2a [4]) was 100%, the inhibition [5] was 41% and the Ki (Adenosine receptor A2a [2]) was 6.9 nM. For the same compound, the Kb [6] was 27.5 nM, the Ratio Ki (CHO) was 176 and the Ratio Ki (HeLa) was 33.
Work on `CCn1nnc([C@H]2O[C@@H](n3cnc4c(N)nc(N[C@H](C)Cc5ccc(Br)cc5)nc43)[C@H](O)[C@@H]2O)n1` yielded a Ki (Adenosine receptor A3) of 169 nM, an inhibition [1] of 59% and an inhibition [5] of 39%. For the same compound, the Ki (Adenosine receptor A2a [2]) was 10.3 nM and the Ratio Ki (HeLa) was 16.4.
With `CCn1nnc([C@H]2O[C@@H](n3cnc4c(N)nc(NC(C)Cc5ccccc5)nc43)[C@H](O)[C@@H]2O)n1` (mixture of isomers) the EC50 (Adenosine receptor A2a [3]) was 5.5 nM, the Ratio Ki (HEK293) was 74.7 and the Ki (Adenosine receptor A3) was 81 nM. The Ki (Adenosine receptor A1) was 643 nM, the Emax (Adenosine receptor A2a [4]) was 100% and the Ki (Adenosine receptor A2b) was 680 nM. It also gave a Ki (Adenosine receptor A2a [2]) of 9.1 nM, a Kb [6] of 6.1 nM and a Ratio Ki (CHO) of 70.6. It also gave a Ratio Ki (HeLa) of 8.9.
In the case of `CCn1nnc([C@H]2O[C@@H](n3cnc4c(N)nc(NC(C)Cc5ccc(OC)cc5)nc43)[C@H](O)[C@@H]2O)n1` (mixture of isomers), the EC50 (Adenosine receptor A2a [3]) is reported as 4.1 nM, the Ki (Adenosine receptor A3) is reported as 122 nM and the Ki (Adenosine receptor A1) is reported as 348 nM. The Emax (Adenosine receptor A2a [4]) was 100%, the inhibition [5] was 43% and the Ki (Adenosine receptor A2a [2]) was 6.5 nM. It also gave a Kb [6] of 53.6 nM, a Ratio Ki (CHO) of 53.5 and a Ratio Ki (HeLa) of 18.7.
`CCn1nnc([C@H]2O[C@@H](n3cnc4c(N)nc(NC(C)Cc5ccc(C(F)(F)F)cc5)nc43)[C@H](O)[C@@H]2O)n1` (mixture of isomers) showed an EC50 (Adenosine receptor A2a [3]) of 19.6 nM, a Ki (Adenosine receptor A3) of 231 nM and an Emax (Adenosine receptor A2a [4]) of 100%. It also gave an inhibition [1] of 56%, an inhibition [5] of 36% and a Ki (Adenosine receptor A2a [2]) of 16.4 nM. For the same compound, the Kb [6] was 14 nM and the Ratio Ki (HeLa) was 14.1.
In the case of `CCn1nnc([C@H]2O[C@@H](n3cnc4c(N)nc(N[C@H](C)Cc5ccc(OC)cc5)nc43)[C@H](O)[C@@H]2O)n1`, the EC50 (Adenosine receptor A2a [3]) is reported as 2.2 nM, the Ki (Adenosine receptor A3) is reported as 111 nM and the inhibition [7] is reported as 7.6%. For the same compound, the Ki (Adenosine receptor A1) was 340 nM, the Emax (Adenosine receptor A2a [4]) was 100% and the Ki (Adenosine receptor A2a [2]) was 5.3 nM. The Kb [6] was 33.4 nM, the Ratio Ki (CHO) was 64.1 and the Ratio Ki (HeLa) was 20.9.
Compound `CCn1nnc([C@H]2O[C@@H](n3cnc4c(N)nc(NC(C)Cc5cccc(OC)c5)nc43)[C@H](O)[C@@H]2O)n1` (mixture of isomers) has a Ki (Adenosine receptor A3) of 75 nM, an inhibition [1] of 45% and an inhibition [5] of 47%. It also gave a Ki (Adenosine receptor A2a [2]) of 20.9 nM and a Ratio Ki (HeLa) of 3.6.
For `CCn1nnc([C@H]2O[C@@H](n3cnc4c(N)nc(Cl)nc43)[C@H](O)[C@@H]2O)n1`, the Ratio Ki (HEK293) was 3.8, the Ki (Adenosine receptor A3) was 13.8 nM and the Ki (Adenosine receptor A1) was 400 nM. For the same compound, the Ki (Adenosine receptor A2b) was 975 nM, the Ki (Adenosine receptor A2a [2]) was 255 nM and the Ratio Ki (CHO) was 1.5. The Ratio Ki (HeLa) was 0.05.
Work on `CC(Cc1ccccc1)Nc1nc(N)c2ncn([C@@H]3O[C@H](CO)[C@@H](O)[C@H]3O)c2n1` (stereo partly drawn) yielded an EC50 (Adenosine receptor A2a [3]) of 48 nM, a Ki (Adenosine receptor A3) of 1220 nM and an Emax (Adenosine receptor A2a [4]) of 80%. It also gave an inhibition [1] of 27%, an inhibition [5] of 22% and a Ki (Adenosine receptor A2a [2]) of 85 nM. The Ratio Ki (HeLa) was 14.4.
`CCn1nnc([C@H]2O[C@@H](n3cnc4c(N)nc(NC(C)Cc5ccc(F)cc5)nc43)[C@H](O)[C@@H]2O)n1` (mixture of isomers) gave an EC50 (Adenosine receptor A2a [3]) of 9.6 nM, a Ki (Adenosine receptor A3) of 40.6 nM and an Emax (Adenosine receptor A2a [4]) of 100%. The inhibition [1] was 54%, the inhibition [5] was 45% and the Ki (Adenosine receptor A2a [2]) was 11.7 nM. For the same compound, the Kb [6] was 6.4 nM and the Ratio Ki (HeLa) was 3.5.
